# In patent US20140155334A1, “POLYPHOSPHATE AND PYROPHOSPHATE DERIVATIVE OF SACCHARIDES” (Université de Strasbourg, priority 2010, published 2014):
# Molecular target: T1, stripped human Hb (Homo sapiens, UniProt P68871+P69905)
# T1 construct: from tissue; host or cells: human blood (red blood cell hemolysate, gel-filtered on Sephadex G-25 to remove BPG)
# Test: Oxygen equilibrium curves of stripped hemoglobin (Hemox Analyzer), P50 shift
# Type: biochemical
# Details: compound:Hb molar ratio 20:1, TES-saline buffer pH 7.4
# Source text: Human blood was withdrawn from non-smoking healthy volunteers (CDD) in heparinized microtubes and treated according to the procedure described by Riggs. See A. Riggs, Methods Enzymol. 1981, 76, 5. Red blood cells were washed three times with 0.85% saline and lysed by the addition of 1 volume of purified water per volume of packed red blood cells. Hemolysate was kept cold and passed through a Sephadex G-25 column (1.0×20 cm) equilibrated with 0.1 M NaCl with 10^−5 M EDTA pH 7.5, to remove BPG. The concentration of oxy-Hb was assessed by UV-Vis spectrophotometry (ε=58400 M^−1 cm^−1 at 577 nm per oxy-Hb tetramer).
# Solutions of the test compounds (supra, 100 mM) were prepared in purified water and the pH was adjusted to 7.0-7.4 prior to incubations with stripped Hb in a molar ratio of 20:1. The mixtures were diluted in 3 ml of TES-saline buffer (30 mM TES, 140 mM saline, pH 7.4) and oxygen equilibrium curves were measured using a Hemox Analyzer apparatus (TCS Scientific Corp., USA). The P50 values and Hill coefficients were calculated by linear regression analysis from data points obtained between 40 and 60% oxygen saturation.
# T1 sequence (P68871 2-147 limits assumed): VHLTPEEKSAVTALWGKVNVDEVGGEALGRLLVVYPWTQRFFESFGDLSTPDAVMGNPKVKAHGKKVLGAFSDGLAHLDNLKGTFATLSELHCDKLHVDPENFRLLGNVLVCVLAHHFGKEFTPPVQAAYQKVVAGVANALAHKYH
# T1 sequence (P69905 2-142 limits assumed): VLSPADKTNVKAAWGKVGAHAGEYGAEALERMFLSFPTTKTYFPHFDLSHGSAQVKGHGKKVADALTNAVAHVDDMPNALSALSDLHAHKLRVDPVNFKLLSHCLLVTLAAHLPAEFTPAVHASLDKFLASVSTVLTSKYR
SMILES,shift of the Hb oxygenation curves (P50) [%],relative effectiveness in lowering Hb affinity to oxygen (comparison in words)
"CO[C@H]1O[C@H](COP(=O)(O)O)[C@@H](OP(=O)(O)O)[C@H](OP(=O)(O)O)[C@H]1OP(=O)(O)O [Compound 41, 1-O-methyl-α-glucose tetrakisphosphate]",264,–
"O=P(O)(O)O[C@@H]1O[C@H](CO)[C@H](OP(=O)(O)O)[C@H](OP(=O)(O)O)[C@H]1OP(=O)(O)O [Compound 34, β-galactose 1,2,3,4-tetrakisphosphate]",259,–
"O=P(O)(O)OC[C@H]1O[C@H](OP(=O)(O)O)[C@H](OP(=O)(O)O)[C@@H](OP(=O)(O)O)[C@@H]1OP(=O)(O)O [Compound 47, α-glucose pentakisphosphate]",466,–
"O=P(O)(O)O[C@H]1[C@H](OP(=O)(O)O)[C@@H](OP(=O)(O)O)[C@H](OP(=O)(O)O)[C@@H](OP(=O)(O)O)[C@H]1OP(=O)(O)O [IHP, myo-inositol hexakisphosphate, reference compound]",466,BPG<ITPP<IHP
"O=P(O)(O)OC[C@H]1O[C@H](OP(=O)(O)O)[C@H](OP(=O)(O)O)[C@@H](OP(=O)(O)O)[C@H]1OP(=O)(O)O [Compound 51, α-galactose pentakisphosphate]",449,–
"O=P(O)(O)O[C@H]1O[C@H](CO)[C@@H](OP(=O)(O)O)[C@H](OP(=O)(O)O)[C@H]1OP(=O)(O)O [Compound 29, α-glucose 1,2,3,4-tetrakisphosphate]",266,–
"O=P1([O-])OC2C3OP(=O)([O-])OP(=O)([O-])OC3C3OP(=O)([O-])OP(=O)([O-])OC3C2OP(=O)([O-])O1.[Na+].[Na+].[Na+].[Na+].[Na+].[Na+] (centres unmarked) [ITPP, myo-inositol trispyrophosphate hexasodium salt, reference compound]",–,BPG<ITPP<IHP
"O=P(O)(O)O[C@H]1O[C@H](CO)[C@@H](OP(=O)(O)O)[C@H](OP(=O)(O)O)[C@@H]1OP(=O)(O)O [Compound 31, α-mannose 1,2,3,4-tetrakisphosphate]",–,generally more effective than their corresponding glucose
"O=P(O)(O)O[C@@H]1O[C@H](CO)[C@@H](OP(=O)(O)O)[C@H](OP(=O)(O)O)[C@H]1OP(=O)(O)O [Compound 30, β-glucose 1,2,3,4-tetrakisphosphate]",201,–
"CO[C@H]1O[C@H](CO)[C@@H](OP(=O)(O)O)[C@H](OP(=O)(O)O)[C@H]1OP(=O)(O)O [Compound 8, 1-O-methyl-α-glucose 2,3,4-trisphosphate]",113,–
"O=P(O)(O)OC[C@H]1O[C@H](OP(=O)(O)O)[C@@H](OP(=O)(O)O)[C@@H](OP(=O)(O)O)[C@@H]1OP(=O)(O)O [Compound 49, α-mannose pentakisphosphate]",520,generally more effective than their corresponding glucose
"CO[C@H]1O[C@H](CO)[C@@H](OP(=O)(O)O)[C@H](OP(=O)(O)O)[C@@H]1OP(=O)(O)O [Compound 10, 1-O-methyl-α-mannose 2,3,4-trisphosphate]",144,generally more effective than their corresponding glucose
"CO[C@H]1O[C@H](COP(=O)(O)O)[C@@H](OP(=O)(O)O)[C@H](OP(=O)(O)O)[C@@H]1OP(=O)(O)O [Compound 42, 1-O-methyl-α-mannose tetrakisphosphate]",–,less effective than the other mannose tetrakisphosphates derivatives
"O=P(O)(O)OC[C@H]1O[C@@H](O[C@H]2[C@H](OP(=O)(O)O)[C@@H](OP(=O)(O)O)C(OP(=O)(O)O)O[C@@H]2COP(=O)(O)O)[C@H](OP(=O)(O)O)[C@@H](OP(=O)(O)O)[C@H]1OP(=O)(O)O (some centres unmarked) [Compound 55, lactose octakisphosphate]",550,–
"O=C([O-])[C@@H](COP(=O)([O-])[O-])OP(=O)([O-])[O-].[Na+].[Na+].[Na+].[Na+].[Na+] [BPG, 2,3-bisphospho-D-glyceric acid pentasodium salt, reference compound]",–,BPG<ITPP<IHP
"O=P(O)(O)O[C@H]1O[C@H](CO)[C@H](OP(=O)(O)O)[C@H](OP(=O)(O)O)[C@H]1OP(=O)(O)O [Compound 33, α-galactose 1,2,3,4-tetrakisphosphate]",226,–
"O=P(O)(O)O[C@@H]1O[C@H](CO)[C@@H](OP(=O)(O)O)[C@H](OP(=O)(O)O)[C@@H]1OP(=O)(O)O [Compound 32, β-mannose 1,2,3,4-tetrakisphosphate]",–,generally more effective than their corresponding glucose
